Key:
[1] = test system: UOK121 cells; test: Example 10 Test B: cyclodextrin with 2DG-ABT in UOK121 cells, live cells by trypan-blue dye exclusion; format: cell-based, human; settings: 10 mM 2DG, 10 mM cyclodextrin, 0.3 μM ABT-263, 25 mM glucose
Description: (§1) Dead and live cells were counted by trypan-blue dye exclusion methods. These experiments were done in triplicate, and the error bars indicate the standard deviation.
(Test A) UOK121 cells were incubated in 10% serum medium with 5 mM or 10 mM α-, β-, and γ-cyclodextrins for 45 minutes. The same medium without any cyclodextrin was also incubated as a control. The cells were harvested and analyzed by Western Blots for the phosphorylation of AKT and ERK1/2 as an indicator of the AKT and ERK1/2 activations. (Test B) 10 mM 2DG was added to a medium of U0K121 cells in the presence of 25 mM glucose, and the medium was incubated for 1.5 hours. To the medium was added 10 mM α-, β-, or γ-cyclodextrin, and the medium was incubated for 30 minutes. Then, 0.3 μM ABT-263 was added thereto, and the medium was further incubated for 2 hours. Separately, a control that includes only α-, β-, or γ-cyclodextrin without 2DG or ABT-263, and another control that includes neither α-, β-, or γ-cyclodextrin, nor 2DG or ABT-263 were prepared. 2.5 hours after adding each cyclodextrin (i.e., 2 hours after adding ABT-263), all the cells were washed with the medium twice, and next day the live cells were counted by trypan-blue dye exclusion assay.

[2] = test system: AKT; test: Example 6 Test A: AKT phosphorylation, Panc-1 pancreatic cancer cells; format: cell-based; settings: Panc-1 cells, 10 mM bCD (MBCD) 30 minutes, 25 mM glucose
Description: (§2) We ran 20 μg of proteins per lane for western blots. We ran 8, 10, 12.5 and 15% gels depending on the size of proteins being detected by western blots. When there are two proteins having a similar size, gel is flowed in each protein to make western blot analysis about each protein. The immunoprecipitation was undergone by adding 200 μg of protein from solubilized cells and Protein G Sepharose or Protein A Sepharose (Sigma P3296/P9242) pre-conjugated with immunoprecipitation antibody to a buffer for immunoprecipitation, and slowly rotating the tube containing the sample buffer at 4° C. overnight. […] The precipitate in the solution was separated with 15% SDS-PAGE or 12.5% SDS-PAGE and analyzed by Western blotting.
(§3) (Test A) HeLa cervical cancer cells, UOK121 renal cancer cells, Panc-1 pancreatic cancer cells, and A431 squamous cancer cells were untreated, pre-treated with 10 mM 2DG, co-incubated with 10 mM bCD for the last 30 minutes, or both-treated with the 10 mM 2DG and the 10 mM bCD, in the presence of 25 mM glucose contained in the media. Each cell was harvested and analyzed by Western Blotting. (Test B) The same samples of A431 cell lysates in Test A were analyzed for EGFR activation, ERK1/2 activation, and PI3K activation. […] The cells were harvested and the live cells were counted by trypan-blue dye exclusion assay. […]

[3] = test system: AKT; test: Example 6 Test A: AKT phosphorylation, HeLa cervical cancer cells; format: cell-based; settings: 10 mM bCD (MBCD) 30 minutes, 25 mM glucose
Description: as §2, §3

[4] = test system: AKT; test: Example 1 Test A: IGF1-stimulated AKT phosphorylation in HeLa cells, Western blot; format: cell-based; settings: serum-free, 7 mM bCD (MBCD) 30 minutes, 20 ng/mL IGF1 20 minutes
Description: as §2, with “overnight. The buffer for immunoprecipitation comprises 20 mM Tris Ph 7.5, 1% Triton-X100, 150 mM NaCl, phosphatase inhibitor cocktail (Cell Signaling (#58709S)), and 10% glycerol.” for “overnight.”
(§4) (Test A) HeLa cells were incubated in serum-free medium with 0, 1.75, 3.5, and 7.0 mM bCD for 30 minutes, which were prepared in duplicate in each bCD concentration. […] The cells were harvested and analyzed by Western Blots for phosphor-serine AKT and AKT, in which the phosphorylation of AKT was used as an indicator of the AKT activation. […] The cells were harvested and analyzed by Western Blots about EGFR, IGF1R, ERK, PI3K, and AKT, as well as each phosphorylation thereof. […]

[5] = test system: AKT; test: Example 6 Test A: AKT phosphorylation, A431 squamous cancer cells; format: cell-based; settings: 10 mM bCD (MBCD) 30 minutes, 25 mM glucose
Description: as §2, §3

[6] = test system: EGFR, ERK1/2, and PI3K; test: Example 6 Test B: EGFR, ERK1/2 and PI3K activation in A431 cells; format: cell-based; settings: bCD and/or 2DG, 10 mM each
Description: as §2, §3

[7] = test system: AKT; test: Example 3 Method C: recovery of AKT activities in HeLa cells after bCD washout; format: cell-based; settings: 10 mM bCD (MBCD) one hour, washed, 10% serum, up to 120 minutes
Description: (§5) We ran 20 μg of proteins per lane for western blots. We ran 8, 10, 12.5 and 15% gels depending on the size of proteins being detected by western blots. When there are two proteins having a similar size, gel is flowed in each protein to make western blot analysis about each protein. The immunoprecipitation was undergone by adding 200 μg of protein from solubilized cells and Protein G Sepharose or Protein A Sepharose (Sigma P3296/P9242) pre-conjugated with immunoprecipitation antibody to a buffer for immunoprecipitation, and slowly rotating the tube containing the sample buffer at 4° C. overnight. The buffer for immunoprecipitation comprises 20 mM Tris Ph 7.5, 1% Triton-X100, 150 mM NaCl, phosphatase inhibitor cocktail (Cell Signaling (#58709S)), and 10% glycerol. Next morning, the content in the tube was centrifuged. The precipitate was washed with the same buffer twice and dissolved in SDS buffer. The precipitate in the solution was separated with 15% SDS-PAGE or 12.5% SDS-PAGE and analyzed by Western blotting.
HeLa cells were incubated with 10 mM bCD for one hour in the presence of 10% serum before the cells were washed and re-incubated in medium containing 10% serum for the indicated period (˜120 minutes).

[8] = test system: RTK-Ras-ERK signals; test: Example 1 Tests B and C: ERK signals in EGF or IGF1 challenged HeLa cells, Western blot; format: cell-based; settings: 10 mM bCD (MBCD) 30 minutes, then EGF or IGF1
Description: as §5, with “Next morning, the content in the tube was centrifuged. The precipitate was washed with the same buffer twice and dissolved in SDS buffer.” left out
as §4

[9] = test system: AKT; test: Example 6 Test A: AKT phosphorylation, UOK121 renal cancer cells; format: cell-based, human; settings: 10 mM bCD (MBCD) 30 minutes, 25 mM glucose
Description: as §2, §3

[10] = test system: PI3K-AKT pro-survival signals; test: Example 1 Tests B and C: EGF or IGF1 challenge of HeLa cells, Western blot for EGFR, IGF1R, PI3K, AKT phosphorylation; format: cell-based; settings: 10 mM bCD (MBCD) 30 minutes, then 100 ng/mL EGF or 10 ng/mL IGF1
Description: as §5, with “Next morning, the content in the tube was centrifuged. The precipitate was washed with the same buffer twice and dissolved in SDS buffer.” left out
as §4

[11] = test system: IGF1-induced hypoglycemia; test: Example 4: IGF1-induced hypoglycemia in mice; format: in vivo; settings: five-hour starved mice, 40 μg bCD (HPBCD) 30 minutes before 100 ng IGF1, glucose after thirty minutes
Description: Five-hour starved mice were either pre-treated with 40 μg bCD for 30 minutes, or without. They were then injected with 100 ng IGF1. After thirty minutes, the blood glucose levels were measured by drawing blood from each mouse tail. The experiments were performed in triplicate samples and the error bars indicate the standard deviation. The mice were all about 20 g.

[12] = test system: AKT; test: Example 3 Method B: AKT phosphorylation in RCC4 cells in 10% serum; format: cell-based; settings: 10 mM 2DG 2 hours, 10 mM bCD (MBCD) last 30 minutes
Description: as §5
RCC4 cells were incubated with or without 10 mM 2DG for 2 hours in the presence of 10% serum. In the last 30 minutes, each one subset of cells treated/untreated with 2DG was exposed to 10 mM bCD before the cells were harvested and analyzed.

[13] = test system: Panc-1 cells; test: Example 9: 2DG-bCD-TRAIL in Panc-1 cells, live cells by trypan-blue dye exclusion; format: cell-based; settings: TRAIL 10 ng/ml alone
Description: as §1
(A) Panc-1 cells were treated with the standard 2DG-bCD-TRAIL protocol (FIG. 3). The live cells were distinguished from the dead cells by trypan-blue dye exclusion assays, and the live cells were counted, and graphed. The experiments were performed in triplicate and the error bars represent the standard deviations. (B) Western blots of Panc-1 cells left untreated, treated with TRAIL, treated with 2DG-bCD combination, and treated with the combination of 2DG-bCD-TRAIL as depicted in FIG. 3. The cells were harvested at hour 6. The experiments were repeated three times with similar results.

## OC[C@H]1O[C@@H]2O[C@H]3[C@H](O)[C@@H](O)[C@@H](O[C@H]4[C@H](O)[C@@H](O)[C@@H](O[C@H]5[C@H](O)[C@@H](O)[C@@H](O[C@H]6[C@H](O)[C@@H](O)[C@@H](O[C@H]7[C@H](O)[C@@H](O)[C@@H](O[C@H]8[C@H](O)[C@@H](O)[C@@H](O[C@H]9[C@H](O)[C@@H](O)[C@@H](O[C@H]1[C@H](O)[C@H]2O)O[C@@H]9CO)O[C@@H]8CO)O[C@@H]7CO)O[C@@H]6CO)O[C@@H]5CO)O[C@@H]4CO)O[C@@H]3CO [γ-cyclodextrin]
[1]
  enhancement of the combination effect of 2DG-ABT (live cells): little enhanced

## methyl-β-cyclodextrin [bCD]
[2]
  AKT phosphorylation: attenuated
[3]
  AKT phosphorylation: attenuated
[4]
  process that IGF1 generates signal to AKT (AKT phosphorylation): completely block
[5]
  AKT phosphorylation: attenuated
[6]
  EGFR, ERK1/2, and PI3K activation: all activated
[7]
  AKT activities coming back after return to media without bCD: did not take long
[8]
  Ras-ERK proliferation signals: intact
[9]
  AKT phosphorylation: attenuated
[10]
  AKT activations: considerably diminished
  activation of EGFR, IGF1R, and PI3K: clearly activated
[11]
  IGF1-induced hypoglycemia (blood glucose): clearly attenuated
[12]
  phosphorylation of AKT: almost totally absent

## OC[C@H]1O[C@@H]2O[C@H]3[C@H](O)[C@@H](O)[C@@H](O[C@H]4[C@H](O)[C@@H](O)[C@@H](O[C@H]5[C@H](O)[C@@H](O)[C@@H](O[C@H]6[C@H](O)[C@@H](O)[C@@H](O[C@H]7[C@H](O)[C@@H](O)[C@@H](O[C@H]1[C@H](O)[C@H]2O)O[C@@H]7CO)O[C@@H]6CO)O[C@@H]5CO)O[C@@H]4CO)O[C@@H]3CO [α-cyclodextrin]
[1]
  enhancement of the combination effect of 2DG-ABT (live cells): little enhanced

B1: TRAIL: TNF-related apoptosis-inducing ligand (protein, UniProt P50591 1-281, looked up)
Tumor necrosis factor ligand …: MAMMEVQGGPSLGQTCVLIVIFTVLLQSLCVAVTYVYFTNELKQMQDKYSKSGIACFLKEDDSYWDPNDEESMNSPCWQVKWQLRQLVRKMILRTSEETISTVQEKQQNISPLVRERGPQRVAAHITGTRGRSNTLSSPNSKNEKALGRKINSWESSRSGHSFLSNLHLRNGELVIHEKGFYYIYSQTYFRFQEEIKENTKNDKQMVQYIYKYTSYPDPILLMKSARNSCWSKDAEYGLYSIYQGGIFELKENDRIFVSVTNEHLIDMDHEASFFGAFLVG
[13]
  effect on Panc-1 cells (live cells): virtually no effect

From US20170296573A1, “ANTITUMOR DRUG COMPRISING BETA-CYCLODEXTRIN” (JRC G. K., priority 2014, published 2017)
